Here are results for 5 molecules from US20110045092A1, “CASEIN […] ENCAPSULATING […] ACTIVE AGENTS AND USES THEREOF” (priority 2008, published 2011).

One data set can be described thus: Zeta potential analysis. Type of data set: physicochemical. Conditions: concentration range studied; PBS pH 7.0. Here is the method:
Particle size distribution, mean Gaussian diameter, and zeta potential were determined by a combined dynamic light scattering (DLS) and zeta potential analyzer (NICOMP 380, Particle Sizing Systems (Agilent Technologies, Inc.), Santa Barbara, Calif., USA) at 25° C.
Zeta potential was measured in PBS solutions without NaCl, under a 3 V/cm e-field, using phase analysis mode. The zeta potential was calculated from the electrophoretic mobility (EM) using the Smoluchowski model (which is a reasonable approximation given that the radius of the particles (a) was around 125 nm, and the ionic strength during the EM measurement was calculated to be about 50 mM, i.e. the Debye length (κ^−1) was around 1.4 nm, so that the product κ^−1a=92>>1).

The nature of data set [1]: Visual appearance of drug solution with and without β-CN. The format is physicochemical. The text has this:
In order to evaluate the visual appearance of the tested drug when encapsulated within the β-CN system as compared to the non-encapsulated drug solubilized at a similar concentration, in PBS and DMSO (i.e. without the addition of β-CN), photographs were taken of both solutions and their appearance was compared.

The target of data set [2] is T1, β-CN (Bos taurus, UniProt P02666).
T1 construct: β-CN from bovine milk (C6905, purity 90%); purchased Sigma-Aldrich Israel Ltd. C6905; host or cells: bovine milk
T1 sequence (P02666 16-224): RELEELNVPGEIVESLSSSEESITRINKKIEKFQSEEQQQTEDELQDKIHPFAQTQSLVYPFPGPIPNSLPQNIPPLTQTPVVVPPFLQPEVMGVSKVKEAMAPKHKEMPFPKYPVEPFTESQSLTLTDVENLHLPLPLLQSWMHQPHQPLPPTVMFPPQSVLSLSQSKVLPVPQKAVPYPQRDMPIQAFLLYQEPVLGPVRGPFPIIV
Kind of data set: Trp 143 fluorescence quenching of β-CN by drug. Type of data set: binding, bovine. Conditions: for Kd: Trp 143 of β-CN quenched by drug, 1 mg/ml β-CN in PBS pH 7.0, emission 332 nm, read-out: Calculated Kd. The procedure:
Tryptophan (Trp) Fluorescence:
Trp 143 is located in the main hydrophobic domain of β-CN. Quenching of protein fluorescence due to energy transfer from this Trp residue to a bound ligand serves to determine the binding affinity.
β-CN-drug interaction was studied by monitoring the changes in the Trp fluorescence emission of β-CN upon addition of the drug. Trp fluorescence was determined using an excitation at 287 nm and emission was detected at 332 nm, with slit widths of 1 nm, using the Fluorolog 3-22 spectrofluoreineter. Intrinsic fluorescence of the Trp residues of β-CN was measured before and after addition of different amounts of each drug ranging between drug: β-CN molar ratio of 0.2:1 to 12:1 at 1 mg/ml β-CN. Changes in Trp fluorescence were used to evaluate the binding of the drug to β-CN. The apparent dissociation constant and the number of drug molecules that are involved in binding of one β-CN molecule were calculated from plots of the fluorescence intensity at 332 nm, expressed as the percentage of the fluorescence of the drug-free β-CN vs. the added drug concentration. The data was analyzed using Matlab (MathWorks), by means of the following equations: […]
where F is the fluorescence intensity at a given added ligand (drug) concentration; F0 the fluorescence intensity at the beginning of the titration; F1 the fluorescence at the end of the titration; [PF] the concentration of the free β-CN; [LF] the concentration of the free ligand, drug; [PL] the concentration of the β-CN-drug complex; Kd and Ka are the dissociation and association constants respectively (Christiaenset al. 2002 European Journal of Biochemistry 269 [12]:2918-2926).
Emission spectra of pure 1 mg/ml β-CN vs. those of drug encapsulated in 1mg/ml at 4:1 drug: β-CN molar ratio, were collected at Trp excitation wavelength 287 nm, using the Fluorolog 3-22 spectrofluorometer.

For data set [3] the following is noted: cited from earlier work.
Data set [4] has as its target T1, β-CN. Kind of data set: Mitoxantrone fluorescence quenching by β-CN. The conditions noted are these: 42 μM mitoxantrone. Type of data set: binding, bovine. Here is the method: The β-CN-mitoxantrone interaction was further studied by monitoring the changes in the mitoxantrone fluorescence emission upon addition of β-CN. For this purpose a 3-D fluorescence spectra analysis of mitoxantrone was performed using the Fluorolog 3-22. Mitoxantrone fluorescence emission was measured using 609 nm and 675 nm excitation and emission, respectively, and slit widths of 1 nm. Intrinsic fluorescence of 42 μM mitoxantrone was measured before and after addition of different amounts of β-CN. The β-CN concentration range was 0.1-3.8 mg/ml. The apparent dissociation constant and the number of β-CN molecules bound per mitoxantrone molecule were calculated from plots of the fluorescence intensity at 675 nm expressed as the percentage of the fluorescence of the β-CN-free mitoxantrone vs. the added β-CN concentration. Data were analyzed as detailed herein above for Trp quenching.

Where [5] appears, read: 504 μM drug in PBS with 4.55-5.6% DMSO.

Where a name gives a salt, the structure may show the parent alone.

In the case of `CC(=O)O[C@@]12CO[C@@H]1C[C@H](O)[C@@]1(C)C(=O)[C@H](O)C3=C(C)[C@@H](OC(=O)[C@H](O)[C@@H](NC(=O)OC(C)(C)C)c4ccccc4)C[C@@](O)([C@@H](OC(=O)c4ccccc4)[C@H]21)C3(C)C` [Docetaxel, Docetaxel trihydrate], the “zeta potential of drug in PBS without β-CN” value in “Zeta potential analysis” was “around −30 mV”. The “visual appearance, without β-CN” value in data set [1] (setting [5]) is “turbid, unstable and aggregated solution”.

Turning to `CC(=O)O[C@H]1C(=O)[C@@]2(C)[C@H]([C@H](OC(=O)c3ccccc3)[C@]3(O)C[C@H](OC(=O)[C@H](O)[C@@H](NC(=O)c4ccccc4)c4ccccc4)C(C)=C1C3(C)C)[C@]1(OC(C)=O)CO[C@@H]1C[C@@H]2O` [Paclitaxel, paclitaxel], the “change of β-CN Trp-143 emission upon encapsulation” value on β-CN [2] (4:1 Paclitaxel:β-CN, 1 mg/ml β-CN, excitation 287 nm) is on record as “decrease in emission intensity”. In addition, in data set [1] (84 μM drug in PBS and 0.8% DMSO), the “visual appearance, without β-CN” value was “turbid, unstable and aggregated system”.

As for `CCc1c2c(nc3ccc(OC(=O)N4CCC(N5CCCCC5)CC4)cc13)-c1cc3c(c(=O)n1C2)COC(=O)[C@]3(O)CC` [irinotecan, irinotecan hydrochloride trihydrate], the pKa in data set [3] is 8.1. Also, the “visual appearance, without β-CN” value in data set [1] (setting [5]) is “turbid, unstable and aggregated solution”.

Regarding `O=C1c2c(O)ccc(O)c2C(=O)c2c(NCCNCCO)ccc(NCCNCCO)c21` [mitoxantrone, Mitoxantrone dihydrochloride], the “Log P” value in data set [3] is listed as “higher than 2”. Moreover, the Kd on β-CN [2] (excitation 287 nm, model fit) was 8.43 µM; on β-CN [4] (mitoxantrone fluorescence quenched by β-CN, β-CN 0.1-3.8 mg/ml, excitation 609 nm, emission 675 nm, model fit, read-out: Calculated Kd), 0.726 µM. Moreover, the “over-all Trp emission after quenching, of its initial intensity” value at β-CN [2] (plateau at mitoxantrone:β-CN 6:1, 1 mg/ml β-CN) stood at 20%. For the same molecule, on β-CN [4] (plateau at 0.7 mg/ml β-CN), the “over-all mitoxantrone emission quenched by β-CN, up to % of its initial intensity” value is “up to 65%”.

With vinblastine sulfate salt, the pKa in data set [3] is 5.5. In addition, the dissociation constant Kd at β-CN [2] (excitation 287 nm, model fit) is 50.9 µM. At β-CN [2] (drug molecules per β-CN molecule, Trp quenching, model fit), the “n (moles of quencher per moles of fluorophore)” value is reported as 5.25±0.57. Besides, the “initial overall Trp emission intensity quenched” value at β-CN [2] (vinblastine:β-CN 0.2:1 to 10:1 at 1 mg/ml β-CN) was “About 80%”.
